Assay results as given in ChEMBL document CHEMBL2424545, “Structure-efficiency relationship of [1,2,4]triazol-3-ylamines as novel nicotinamide isosteres that inhibit tankyrases” (J Med Chem, 2013).
Converted amounts (≈) assume the structure as drawn.

What was measured:
[1] = Inhibition of Wnt signaling in human HEK293 cells by STF luciferase reporter gene assay
[2] = biological target: T1, Poly [ADP-ribose] polymerase tankyrase-2 (Homo sapiens, UniProt Q9H2K2); experiment: Inhibition of N-terminal GST-tagged TNKS2 (unknown origin) expressed in baculovirus infected sf21 cells after 60 mins by LC-MS analysis
T1 sequence (Q9H2K2 whole entry): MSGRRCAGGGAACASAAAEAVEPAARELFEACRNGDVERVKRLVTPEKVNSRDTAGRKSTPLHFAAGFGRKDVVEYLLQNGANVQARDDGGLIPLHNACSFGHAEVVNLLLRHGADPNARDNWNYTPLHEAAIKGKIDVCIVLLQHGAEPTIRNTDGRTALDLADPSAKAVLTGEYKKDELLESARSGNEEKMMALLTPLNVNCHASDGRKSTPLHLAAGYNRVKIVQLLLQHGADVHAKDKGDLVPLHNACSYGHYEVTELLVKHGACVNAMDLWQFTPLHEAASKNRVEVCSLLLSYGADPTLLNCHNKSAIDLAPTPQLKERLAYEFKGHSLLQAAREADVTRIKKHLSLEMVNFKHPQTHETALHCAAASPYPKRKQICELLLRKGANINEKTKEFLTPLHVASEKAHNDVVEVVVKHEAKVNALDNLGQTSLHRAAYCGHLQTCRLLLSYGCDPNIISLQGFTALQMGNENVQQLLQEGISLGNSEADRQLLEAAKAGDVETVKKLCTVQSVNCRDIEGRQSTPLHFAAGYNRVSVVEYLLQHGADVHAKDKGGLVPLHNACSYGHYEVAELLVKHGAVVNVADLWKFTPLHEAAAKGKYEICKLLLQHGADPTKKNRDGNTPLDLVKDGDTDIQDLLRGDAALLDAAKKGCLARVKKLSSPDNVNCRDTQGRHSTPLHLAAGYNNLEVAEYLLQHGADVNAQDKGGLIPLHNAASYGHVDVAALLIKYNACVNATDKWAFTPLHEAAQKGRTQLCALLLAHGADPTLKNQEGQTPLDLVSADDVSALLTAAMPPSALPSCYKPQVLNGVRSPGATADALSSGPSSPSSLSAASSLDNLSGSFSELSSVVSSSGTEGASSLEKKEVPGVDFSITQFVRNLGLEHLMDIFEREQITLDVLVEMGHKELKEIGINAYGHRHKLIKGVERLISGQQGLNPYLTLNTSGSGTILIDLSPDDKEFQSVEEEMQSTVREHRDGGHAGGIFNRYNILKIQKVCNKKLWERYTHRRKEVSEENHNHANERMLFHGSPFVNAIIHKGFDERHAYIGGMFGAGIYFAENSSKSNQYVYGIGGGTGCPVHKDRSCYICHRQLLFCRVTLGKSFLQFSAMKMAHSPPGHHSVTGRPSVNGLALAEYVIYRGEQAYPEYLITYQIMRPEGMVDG

[3] = biological target: Poly [ADP-ribose] polymerase 2 (Homo sapiens, UniProt Q9UGN5); experiment: Inhibition of PARP2 (unknown origin) after 60 mins by LC-MS analysis
[4] = biological target: T2, Poly [ADP-ribose] polymerase tankyrase-1 (Homo sapiens, UniProt O95271); experiment: Inhibition of N-terminal GST-tagged human TNKS1 expressed in baculovirus infected sf21 cells after 60 mins by LC-MS analysis
T2 sequence (O95271 whole entry): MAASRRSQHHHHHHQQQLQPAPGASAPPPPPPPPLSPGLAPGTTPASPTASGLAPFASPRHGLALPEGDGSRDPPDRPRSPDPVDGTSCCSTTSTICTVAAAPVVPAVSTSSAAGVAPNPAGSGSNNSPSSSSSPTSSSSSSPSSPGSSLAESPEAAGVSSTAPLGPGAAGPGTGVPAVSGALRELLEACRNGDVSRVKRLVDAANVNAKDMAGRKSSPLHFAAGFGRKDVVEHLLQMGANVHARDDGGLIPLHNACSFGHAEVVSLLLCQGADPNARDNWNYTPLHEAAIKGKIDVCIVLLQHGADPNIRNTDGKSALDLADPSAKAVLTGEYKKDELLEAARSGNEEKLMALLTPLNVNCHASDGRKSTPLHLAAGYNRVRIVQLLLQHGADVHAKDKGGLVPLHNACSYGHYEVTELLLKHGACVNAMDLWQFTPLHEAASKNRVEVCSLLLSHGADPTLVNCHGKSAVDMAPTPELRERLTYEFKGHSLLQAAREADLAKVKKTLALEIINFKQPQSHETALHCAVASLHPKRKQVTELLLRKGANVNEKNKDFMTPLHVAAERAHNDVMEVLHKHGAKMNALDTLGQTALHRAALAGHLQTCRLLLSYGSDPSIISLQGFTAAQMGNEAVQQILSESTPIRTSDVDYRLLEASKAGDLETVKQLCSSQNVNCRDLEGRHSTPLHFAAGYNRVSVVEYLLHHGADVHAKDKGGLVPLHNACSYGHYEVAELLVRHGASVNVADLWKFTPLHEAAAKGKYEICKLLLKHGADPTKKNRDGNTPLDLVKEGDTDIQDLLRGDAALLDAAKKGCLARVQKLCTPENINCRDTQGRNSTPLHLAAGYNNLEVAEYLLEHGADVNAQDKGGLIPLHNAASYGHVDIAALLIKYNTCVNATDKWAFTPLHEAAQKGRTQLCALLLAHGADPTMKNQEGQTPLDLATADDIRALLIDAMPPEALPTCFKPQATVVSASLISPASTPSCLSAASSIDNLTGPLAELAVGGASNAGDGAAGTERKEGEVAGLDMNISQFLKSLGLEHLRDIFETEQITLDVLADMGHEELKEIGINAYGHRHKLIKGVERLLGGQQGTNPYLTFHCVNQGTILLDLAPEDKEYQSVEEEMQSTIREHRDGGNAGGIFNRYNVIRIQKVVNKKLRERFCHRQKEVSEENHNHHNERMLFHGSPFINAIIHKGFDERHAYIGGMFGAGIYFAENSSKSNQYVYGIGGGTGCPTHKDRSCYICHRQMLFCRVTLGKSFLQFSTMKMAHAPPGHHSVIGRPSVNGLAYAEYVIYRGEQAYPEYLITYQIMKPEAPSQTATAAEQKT

[5] = Inhibition of TNKS in human SW480 cells assessed as stabilization of axin2 after 24 hrs by ELISA; type: cell-based
[6] = Hepatic extraction ratio in mouse liver microsomes; type: ADME, Microsome; settings: read-out: ERH
[7] = Hepatic extraction ratio in human liver microsomes; type: ADME, Microsome; settings: read-out: ERH
[8] = Solubility of the compound at pH 6.8; type: physicochemical; settings: buffer
[9] = AUC (last) in C57BL/6 mouse at 1 mg/kg, iv; type: ADME, organism-based; parameters: time 0 - last, dose 1 mg/kg, route intravenous; settings: plasma
[10] = AUC (last) in C57BL/6 mouse at 5 mg/kg, po; type: ADME, organism-based; parameters: time 0 - last, dose 5 mg/kg, route oral; settings: plasma
[11] = Volume of distribution at steady state in C57BL/6 mouse at 1 mg/kg, iv; type: ADME, organism-based; parameters: dose 1 mg/kg, route intravenous; settings: in vivo, read-out: Vdss(app)
Mus musculus = experiment: T(last) in C57BL/6 mouse at 1 mg/kg, iv; type: ADME, organism-based; parameters: dose 1 mg/kg, route intravenous; settings: in vivo
[12] = Half life in C57BL/6 mouse at 1 mg/kg, iv; type: ADME, organism-based; parameters: dose 1 mg/kg, route intravenous; settings: in vivo
[13] = Mean residence time (0 to t) in C57BL/6 mouse at 1 mg/kg, iv; type: ADME, organism-based; parameters: dose 1 mg/kg, route intravenous; settings: in vivo
[14] = Cmax in C57BL/6 mouse at 1 mg/kg, iv; type: ADME, organism-based; parameters: dose 1 mg/kg, route intravenous; settings: in vivo
[15] = Cmax in C57BL/6 mouse at 5 mg/kg, po; type: ADME, organism-based; parameters: dose 5 mg/kg, route oral; settings: in vivo
[16] = Tmax in C57BL/6 mouse at 1 mg/kg, iv; type: ADME, organism-based; parameters: dose 1 mg/kg, route intravenous; settings: in vivo
[17] = Oral bioavailability in C57BL/6 mouse at 5 mg/kg; type: ADME, organism-based; settings: in vivo
[18] = Tmax in C57BL/6 mouse at 5 mg/kg, po; type: ADME, organism-based; parameters: dose 5 mg/kg, route oral; settings: in vivo
[19] = Plasma clearance in C57BL/6 mouse at 1 mg/kg, iv; type: ADME, organism-based; parameters: dose 1 mg/kg, route intravenous
[20] = biological target: Poly [ADP-ribose] polymerase 1 (Homo sapiens, UniProt P09874)
Description: Inhibition of human PARP1 after 60 mins by LC-MS analysis

[21] = Plasma clearance in iv dosed Sprague-Dawley rat; type: ADME, organism-based
[22] = Volume of distribution in iv dosed Sprague-Dawley rat; type: ADME, organism-based; settings: in vivo

Sequence of Poly [ADP-ribose] polymerase 1 (P09874 whole entry): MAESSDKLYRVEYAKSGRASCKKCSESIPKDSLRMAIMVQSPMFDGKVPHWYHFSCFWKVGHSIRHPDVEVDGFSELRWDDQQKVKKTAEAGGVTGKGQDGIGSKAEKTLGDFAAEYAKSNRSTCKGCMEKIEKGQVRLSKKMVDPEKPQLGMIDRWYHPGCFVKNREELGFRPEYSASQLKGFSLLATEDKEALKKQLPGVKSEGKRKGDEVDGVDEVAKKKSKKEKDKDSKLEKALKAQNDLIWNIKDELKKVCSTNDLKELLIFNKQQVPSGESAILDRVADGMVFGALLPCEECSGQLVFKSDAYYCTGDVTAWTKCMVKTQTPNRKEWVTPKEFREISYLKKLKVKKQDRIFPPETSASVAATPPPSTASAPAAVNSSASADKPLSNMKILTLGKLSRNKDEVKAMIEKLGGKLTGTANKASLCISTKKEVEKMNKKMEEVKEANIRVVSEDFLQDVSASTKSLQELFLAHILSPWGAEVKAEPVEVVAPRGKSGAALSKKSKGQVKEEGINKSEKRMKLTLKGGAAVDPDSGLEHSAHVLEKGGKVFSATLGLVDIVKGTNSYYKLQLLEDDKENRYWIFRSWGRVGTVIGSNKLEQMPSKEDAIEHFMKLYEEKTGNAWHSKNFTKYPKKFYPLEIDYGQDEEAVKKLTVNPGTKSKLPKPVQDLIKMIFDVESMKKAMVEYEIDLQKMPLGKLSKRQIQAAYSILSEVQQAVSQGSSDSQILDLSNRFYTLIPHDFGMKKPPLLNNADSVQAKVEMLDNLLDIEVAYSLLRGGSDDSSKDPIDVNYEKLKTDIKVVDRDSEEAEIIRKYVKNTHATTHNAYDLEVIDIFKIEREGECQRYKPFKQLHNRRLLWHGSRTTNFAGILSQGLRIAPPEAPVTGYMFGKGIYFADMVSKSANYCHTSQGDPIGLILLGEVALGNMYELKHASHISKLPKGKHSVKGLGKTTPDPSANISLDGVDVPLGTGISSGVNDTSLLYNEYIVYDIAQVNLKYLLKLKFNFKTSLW
Sequence of Poly [ADP-ribose] polymerase 2 (Q9UGN5 whole entry): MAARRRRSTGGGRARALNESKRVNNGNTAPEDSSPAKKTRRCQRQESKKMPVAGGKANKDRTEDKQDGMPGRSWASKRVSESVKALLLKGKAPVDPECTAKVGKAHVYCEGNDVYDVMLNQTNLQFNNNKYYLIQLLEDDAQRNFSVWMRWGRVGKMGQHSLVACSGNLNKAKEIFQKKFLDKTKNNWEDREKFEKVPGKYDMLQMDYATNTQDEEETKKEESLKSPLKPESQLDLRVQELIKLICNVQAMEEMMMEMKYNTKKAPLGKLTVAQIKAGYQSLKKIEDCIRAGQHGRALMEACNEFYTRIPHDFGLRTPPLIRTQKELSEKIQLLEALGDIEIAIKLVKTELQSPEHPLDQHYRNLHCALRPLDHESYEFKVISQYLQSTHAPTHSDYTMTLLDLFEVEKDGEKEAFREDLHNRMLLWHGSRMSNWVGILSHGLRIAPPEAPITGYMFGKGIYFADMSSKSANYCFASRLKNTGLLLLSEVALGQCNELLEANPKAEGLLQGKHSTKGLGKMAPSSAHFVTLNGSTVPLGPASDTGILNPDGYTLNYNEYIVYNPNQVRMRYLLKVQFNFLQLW

Row | Compound | IC50 [1] [µM] | IC50 [2] [nM] | further results
1 | Oc1nc(-c2ccc(C(F)(F)F)cc2)nc2c1CSCC2 | 0.078 |  | 
2 | O=C(Cc1ccccc1)Nc1nnc2n1CCS2 | 7.27 | 239 | 
3 | CC(C)(C)c1ccc(C(=O)Nc2nnc3n2CCS3)cc1 | 2.39 | 31 | IC50 [3]: > 19 µM; IC50 [4]: 299 nM; IC50 [5]: > 10 µM; hepatic extraction ratio [6]: 0.84; hepatic extraction ratio [7]: 0.36; solubility [8]: > 100 µM
4 | CC(C)CC(=O)Nc1nnc2n1CCS2 | 6.45 | 103 | AUC(0-t) [9]: 4.73 µM·h; AUC(0-t) [10]: 8.6 µM·h; Vd [11]: 0.1 L/kg; Tlast (Mus musculus): 1 h; half-life [12]: 6 min; MRT last [13]: 6 min; Cmax [14]: 19.1 µM; Cmax [15]: 13.7 µM; Tmax [16]: 18 min; bioavailability [17]: 36%; Tmax [18]: 18 min; IC50 [4]: 395 nM; IC50 [5]: 7.67 µM; hepatic extraction ratio [6]: 0.29; hepatic extraction ratio [7]: 0.17; solubility [8]: > 1000 µM; clearance [19]: 17 mL/min/kg; IC50 [20]: 55.3 µM
5 | O=C(Nc1nnc2n1CCS2)c1ccccc1 |  | 250 | 
6 | CC(=O)Nc1nnc2n1CCS2 |  | > 19000 | 
7 | Cc1n[nH]c(C)c1CCC(=O)Nc1nnc2n1CCS2 | > 10 | 195 | 
8 | CC(C)(C)c1ccc(C(=O)Nc2nnc3n2CCCS3)cc1 | 47.8 | 353 | IC50 [3]: > 19 µM
9 | O=C(Nc1nnc2n1CCCS2)c1ccccc1 |  | 2760 | 
10 | CC(C)CC(=O)Nc1nnc2n1CCCS2 |  | 980 | 
11 | CC(=O)Nc1nnc2n1CCCS2 |  | > 19000 | 
12 | O=C(Nc1nnc2n1CCS2)C1CC1 | > 50 | 2010 | 
13 | O=C(Nc1nnc2n1CCS2)C1CCC1 | 13.8 | 264 | 
14 | O=C(Nc1nnc2n1CCS2)C1CCCC1 | 12.8 | 220 | 
15 | O=C(Nc1nnc2n1CCS2)C1CCCCC1 | 1.54 | 70 | 
16 | O=C(CC1CCCCC1)Nc1nnc2n1CCS2 | 0.429 | 20 | 
17 | O=C(CC1CCOCC1)Nc1nnc2n1CCS2 | 10.3 | 202 | 
18 | O=C(CCC1CCCC1)Nc1nnc2n1CCS2 | 0.194 | 9 | IC50 [4]: 28 nM; IC50 [5]: 3.08 µM; hepatic extraction ratio [6]: 0.91; hepatic extraction ratio [7]: 0.68; solubility [8]: 630 µM (≈ 168 µg/mL)

Row | Compound | IC50 [1] [µM] | IC50 [2] [nM] | further results
19 | O=C(CCC1CCCCC1)Nc1nnc2n1CCS2 | 0.169 | 8 | IC50 [4]: 32 nM; IC50 [5]: > 10 µM; hepatic extraction ratio [6]: 0.95; hepatic extraction ratio [7]: 0.2; solubility [8]: 520 µM (≈ 146 µg/mL)
20 | O=C(CCC1CCCCCC1)Nc1nnc2n1CCS2 | 2.18 | 26 | 
21 | O=C(CCc1ccccc1)Nc1nnc2n1CCS2 | 1.67 | 39 | 
22 | O=C(CCCC1CCCCC1)Nc1nnc2n1CCS2 | 4.52 | 89 | 
23 | O=C(CCCc1ccccc1)Nc1nnc2n1CCS2 | 6.46 | 303 | 
24 | O=C(NCc1ccccc1)Nc1nnc2n1CCS2 | 17.6 | 444 | 
25 | O=C(CCC1CCNCC1)Nc1nnc2n1CCS2 | > 50 | 2320 | 
26 | O=C(CCc1ccccc1F)Nc1nnc2n1CCS2 | 0.345 | 12 | 
27 | O=C(CCc1ccccc1Cl)Nc1nnc2n1CCS2 | 0.05 | 5 | IC50 [4]: 14 nM; IC50 [5]: 1.4 µM; hepatic extraction ratio [6]: 0.9; hepatic extraction ratio [7]: 0.66; solubility [8]: 32 µM (≈ 9.88 µg/mL)
28 | O=C(CCc1c(Cl)cccc1Cl)Nc1nnc2n1CCS2 | 0.029 | 3 | IC50 [3]: > 19 µM; clearance [21]: 45.6 mL/min/kg; Vd [22]: 1.1 L/kg; IC50 [4]: 12 nM; IC50 [5]: 0.377 µM; hepatic extraction ratio [6]: 0.91; hepatic extraction ratio [7]: 0.61; solubility [8]: 16 µM (≈ 5.49 µg/mL); IC50 [20]: > 19 µM
29 | Cc1cccc(C)c1CCC(=O)Nc1nnc2n1CCS2 | 1.21 | 33 | 
30 | O=C(CCc1cccc(Cl)c1Cl)Nc1nnc2n1CCS2 | 0.02 | 1 | IC50 [3]: 3.8 µM; IC50 [4]: 7 nM; IC50 [5]: > 10 µM; hepatic extraction ratio [6]: 0.92; IC50 [20]: > 19 µM
31 | O=C(CCc1ccc(Cl)cc1Cl)Nc1nnc2n1CCS2 | 0.116 | 5 | IC50 [3]: 4.7 µM; IC50 [4]: 24 nM; IC50 [5]: > 10 µM; hepatic extraction ratio [6]: 0.91; IC50 [20]: > 19 µM
32 | O=C(CCc1cccnc1)Nc1nnc2n1CCS2 | 6.29 | 138 | 
33 | O=C(CCc1ccncc1)Nc1nnc2n1CCS2 | 12.7 | 134 | 
34 | O=C(CCc1ccco1)Nc1nnc2n1CCS2 | 5.35 | 88 | 
35 | O=C(CCn1cncn1)Nc1nnc2n1CCS2 | > 10 | 1790 | 
